pEC50: −log10 of the molar value.
Test system: GFP-expressing HeLa cells
Assay: cAMP detection in HeLa expression cell line, GFP control
Assay type: cell-based, human
Conditions: Homo sapiens, HeLa, 1st GFP column pair, NA = no activity
Method in brief: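 HeLa cells stably expressing C-terminally V5-tagged receptor or GFP (lentiviral, puromycin 3 μg/ml) stimulated at 1500 cells per well for 30 min at RT with compound (10 mM DMSO stock) in stimulation buffer at pH 7.2. cAMP detected by Lance Ultra TR-FRET after lysis and 1 h detection, excitation 337 nm, emission 620/665 nm.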

SMILES: CN1N=C(SCc2ccc(Cl)cc2Cl)Sc2c1cnn(C)c2=O [BTB09089, reference compound]
- pEC50: 6.71
- Emax (relative to 100uM forskolin (100%) and DMSO (0%), read-out: GFP Max Activity %): 1.95%

From article PMC11259170, “Small-molecule probe for IBD risk variant GPR65 I231L alters cytokine signaling networks through positive allosteric modulation” (Science Advances, 2024)
